Results: US10406185B2, “Cancer therapy with a parvovirus combined with a BCL-2 inhibitor” (DEUTSCHES KREBSFORSCHUNGSZENTRUM, priority 2013, dated 2019)

Key:
[1] = tested on: human hematologic tumour xenograft; conditions: several human hematologic tumour xenograft models; cited from earlier work
U138 = assay: LDH assay (cell lysis), U138; format: cell-based, human; conditions: U138, H-1PV at MOI 5, 0.5 μM inhibitor, 72 h
Procedure: 72 hours after infection, percentage of cells undergoing lysis was measured by LDH assay.

human platelets = conditions: in contrast to ABT-737; cited from earlier work
[2] = tested on: peripheral blood mononuclear cells (PBMCs); conditions: non malignant PBMCs; read-out: half maximal effective concentration (EC50); cited from earlier work
[3] = tested on: small-cell lung carcinoma; conditions: small-cell lung carcinoma xenograft mouse models; cited from earlier work
AsPC-1 xenografts = conditions: nude rats, treated animals
Procedure: 5×10^6 AsPC-1 cells were subcutaneously injected in the right flank of 5 week-old female nude rats. After 1 week (when tumour reached the volume of 200-400 mm^3), tumour-bearing animals were randomized in to four groups (n=8). […] Tumour volume was measured with a digital calliper on the days indicated and calculated according to the formula: volume […]=width^2× length/2. Rats were sacrificed when the tumour mass reached 4000 mm^3, in keeping with animal welfare regulations. Data shown represents the average values with standard deviation bars.

U87 = assay: LDH assay (cell lysis), U87; format: cell-based, human; conditions: U87, ABT-737 alone 5 μM, 72 h
Procedure: (§1) LDH assays. […] 72 hours after infection, cell lysis was analyzed by LDH assay as described in the materials and methods section. Columns represent the mean values from 3 replicates with relative standard deviation bars.
(§2) H-1PV cytotoxicity was evaluated by quantification of the enzyme lactate dehydrogenase (LDH), which is released from cells due to loss of membrane integrity (lysis). The assay was performed using the CytoTox 96® Non-Radioactive Cytotoxicity Assay Kit according to the manufacturer's instructions (Promega, Heidelberg, Germany).
(§3) Cells were seeded into 96-well plates usually at the density of 4,000 cells/well in 50 μl of their respective culture media supplemented with 10% FBS. […]
(§4) Briefly, 10 μl of 10× lysis buffer [9% (v/v) Triton X-100 (AppliChem, Darmstadt, Germany) in phosphate buffered saline (PBS)] were added per well in three lines of the plate, which served as 100% cell lysis control. […] The absorbance was measured at a wavelength of 492 nm using the Multiscan ELISA Reader. […] For each condition we calculated the average of the three wells incubated (A) or not (B) with lysis buffer. The average value measured in the wells without cells (background) was subtracted from the values obtained in the wells with the cells.

[4] = tested on: U373, U138, U343 and NCH125 glioma cell lines; assay: Mitochondrial membrane permeabilization (MitoTracker Red), four glioma cell lines; format: cell-based, human; conditions: ABT-737 0.5-1 μM or H-1PV MOI 2.5-7.5 alone, 48-96 h
Procedure: 48-96 hours after infection, cells were stained with Mitotracker Red, harvested and analyzed by flow cytometry. The percentage of cells with MMP, was determined using the CellQuest Software. In the upper panel representative histogram plots are shown for each condition. In the lower panel the results of a typical experiment performed in triplicates are shown. Columns represent the mean values with relative standard deviation bars.
The fluorescent dye MitoTracker® Red CMXRos (Molecular Probes, Invitrogen, Darmstadt, Germany) that stains mitochondria in live cells was used to measure the change in MMP. Due to the formation of pores in the mitochondrial membrane, apoptotic cells cannot retain the dye and show a lower fluorescent signal in flow cytometry analysis.
Glioma cells were seeded in 6-well plates at the density of 2.5×10^5 cells/well in 3 ml of cultural medium with the exception of NCH125 cells that were seeded at the density of 6.25×10^4 cells/well. […] Cell suspension was analyzed with a FACSCalibur (BD Biosciences). At least 10,000 events were acquired and analyzed with the CellQuest Software (BD Biosciences). The average of cells undergoing MMP was calculated from three replicates.

human glioma cell lines [5] = assay: Sub-G1 apoptotic population by flow cytometry, eight glioma cell lines; format: cell-based; conditions: H-1PV MOI 0.5-7.5 or 0.25-5 μM ABT-737 alone, 48-96 h
Procedure: The occurrence of DNA fragmentation (sub-G1 cell population) in response to treatment was assessed by propidium iodide staining and flow cytometry in eight human glioma cell lines (a-h). […] Representative histogram plots are shown in the upper panel. […] Columns represent the mean values with relative standard deviation bars (lower panel).
Propidium iodide staining was performed, in order to detect apoptotic cells after treatment. The dye intercalates in the DNA, where it can be measured by flow cytometry. The fluorescence emission is proportional to the DNA content in the cells. Apoptotic cells are characterized by nuclear DNA fragmentation and can be identified by lower fluorescence emission (sub-G1 apoptotic cell population) (Riccardi & Nicoletti, 2006). […]
After 48 (U251, U138, A172, U87, NCH125), 72 (U373) or 96 (U343, NCH37) hours, from infection, supernatant and cells (harvested by trypsinization) were collected and washed with PBS. […] The cell suspension was filtered in a nylon net, and measured on a FACSCalibur (BD Biosciences, San Jose, Calif.). A minimum of 20,000 events were acquired and analyzed with the CellQuest Software (BD Biosciences). Propidium iodide was detected in the FL-2 channel. Untreated cells were used to set the gate for the apoptotic cell fraction, as they show the fluorescence emission of viable non-apoptotic cells. […]

human glioma cell lines [6] = conditions: ABT-737 alone at the dosages of Table 1, 72 h, all glioma lines except U87
Procedure: as §1, §2, §3, §4

SMILES: CC1(C)CCC(CN2CCN(c3ccc(C(=O)NS(=O)(=O)c4ccc(NCC5CCOCC5)c([N+](=O)[O-])c4)c(Oc4cnc5[nH]ccc5c4)c3)CC2)=C(c2ccc(Cl)cc2)C1 [ABT-199]
- tumor growth [1]: inhibit tumor growth
- increase of H-1PV cytotoxicity in comparison to virus alone (U138): 1.7 fold
- effect on human platelets (human platelets): spares human platelets

SMILES: CN(C)CC[C@H](CSc1ccccc1)Nc1ccc(S(=O)(=O)NC(=O)c2ccc(N3CCN(Cc4ccccc4-c4ccc(Cl)cc4)CC3)cc2)cc1[N+](=O)[O-] [ABT-737]
- EC50 [2]: > 1000 nM
- tumour regression [3]: complete regression
- loss of weight or other adverse side effects (AsPC-1 xenografts): No loss of weight or other adverse side effects
- increase of H-1PV cytotoxicity in comparison to virus alone (U138): 3.8 fold
- cytotoxicity of ABT-737 alone (U87): modestcytotoxic effects
- effect on MMP, single treatments [4]: almost no effect on the MMP
- induction of apoptosis (sub-G1 population), single treatments (human glioma cell lines [5]): unable to induce apoptosis efficiently
- cytotoxicity of ABT-737 alone (human glioma cell lines [6]): no apparent cytotoxicity
